Source: ChEMBL document CHEMBL4138146, “A Schmidt rearrangement-mediated synthesis of novel tetrahydro-benzo[1,4]diazepin-5-ones as potential anticancer and antiprotozoal agents” (Eur J Med Chem, 2017)

Tests used:
Type in all cases: functional
[1] = test system: SF-539; assay: Growth inhibition of human SF539 cells assessed as cell growth at 10^-8 M incubated for 48 hrs by sulforhodamine B assay relative to control; conditions: SF-539, 48 h, read-out: Activity
[2] = test system: U-251; assay: Growth inhibition of human U251 cells assessed as cell growth at 10^-8 M incubated for 48 hrs by sulforhodamine B assay relative to control; conditions: U-251, 48 h, read-out: Activity
[3] = test system: LOX IMVI; assay: Growth inhibition of human LOXIMVI cells assessed as cell growth at 10^-8 M incubated for 48 hrs by sulforhodamine B assay relative to control; conditions: read-out: Activity
[4] = test system: IGROV-1; assay: Growth inhibition of human IGROV1 cells assessed as cell growth at 10^-8 M incubated for 48 hrs by sulforhodamine B assay relative to control; conditions: IGROV-1, 48 h, read-out: Activity
[5] = test system: OVCAR-4; assay: Growth inhibition of human OVCAR4 cells assessed as cell growth at 10^-8 M incubated for 48 hrs by sulforhodamine B assay relative to control; conditions: OVCAR-4, 48 h, read-out: Activity
[6] = test system: ACHN; assay: Growth inhibition of human ACHN cells assessed as cell growth at 10^-8 M incubated for 48 hrs by sulforhodamine B assay relative to control; conditions: read-out: Activity
[7] = test system: CAKI-1; assay: Growth inhibition of human Caki1 cells assessed as cell growth at 10^-8 M incubated for 48 hrs by sulforhodamine B assay relative to control; conditions: CAKI-1, 48 h, read-out: Activity
[8] = test system: SN12C; assay: Growth inhibition of human SN12C cells assessed as cell growth at 10^-8 M incubated for 48 hrs by sulforhodamine B assay relative to control; conditions: read-out: Activity
[9] = test system: PC-3; assay: Growth inhibition of human PC3 cells assessed as cell growth at 10^-8 M incubated for 48 hrs by sulforhodamine B assay relative to control; conditions: PC-3, 48 h, read-out: Activity
[10] = test system: NCI-H226; assay: Growth inhibition of human NCI-H226 cells assessed as cell growth at 10^-7 M incubated for 48 hrs by sulforhodamine B assay relative to control; conditions: NCI-H226, 48 h, read-out: Activity
[11] = test system: HCT-15; assay: Growth inhibition of human HCT15 cells assessed as cell growth at 10^-7 M incubated for 48 hrs by sulforhodamine B assay relative to control; conditions: HCT-15, 48 h, read-out: Activity
[12] = test system: SNB-19; assay: Growth inhibition of human SNB19 cells assessed as cell growth at 10^-7 M incubated for 48 hrs by sulforhodamine B assay relative to control; conditions: SNB-19, 48 h, read-out: Activity
[13] = test system: MCF7; assay: Growth inhibition of human MCF7 cells assessed as cell growth at 10^-7 M incubated for 48 hrs by sulforhodamine B assay relative to control; conditions: MCF7, 48 h, read-out: Activity
[14] = test system: MDA-MB-231; assay: Growth inhibition of human MDA-MB-231 cells assessed as cell growth at 10^-7 M incubated for 48 hrs by sulforhodamine B assay relative to control; conditions: MDA-MB-231, 48 h, read-out: Activity
[15] = test system: NCI-H522; assay: Growth inhibition of human NCI-H522 cells assessed as cell growth at 10^-6 M incubated for 48 hrs by sulforhodamine B assay relative to control; conditions: NCI-H522, 48 h, read-out: Activity
[16] = test system: SNB-19; assay: Growth inhibition of human SNB19 cells assessed as cell growth at 10^-6 M incubated for 48 hrs by sulforhodamine B assay relative to control; conditions: SNB-19, 48 h, read-out: Activity
[17] = test system: OVCAR-4; assay: Growth inhibition of human OVCAR4 cells assessed as cell growth at 10^-6 M incubated for 48 hrs by sulforhodamine B assay relative to control; conditions: OVCAR-4, 48 h, read-out: Activity
[18] = test system: A498; assay: Growth inhibition of human A498 cells assessed as cell growth at 10^-6 M incubated for 48 hrs by sulforhodamine B assay relative to control; conditions: A498, 48 h, read-out: Activity
[19] = test system: UO-31; assay: Growth inhibition of human UO31 cells assessed as cell growth at 10^-6 M incubated for 48 hrs by sulforhodamine B assay relative to control; conditions: UO-31, 48 h, read-out: Activity
[20] = test system: MCF7; assay: Growth inhibition of human MCF7 cells assessed as cell growth at 10^-6 M incubated for 48 hrs by sulforhodamine B assay relative to control; conditions: MCF7, 48 h, read-out: Activity
[21] = test system: A549; assay: Growth inhibition of human A549/ATCC cells assessed as cell growth at 10^-5 M incubated for 48 hrs by sulforhodamine B assay relative to control; conditions: A549, 48 h, read-out: Activity
[22] = test system: HOP-92; assay: Growth inhibition of human HOP92 cells assessed as cell growth at 10^-5 M incubated for 48 hrs by sulforhodamine B assay relative to control; conditions: HOP-92, 48 h, read-out: Activity
[23] = test system: NCI-H522; assay: Growth inhibition of human NCI-H522 cells assessed as cell growth at 10^-5 M incubated for 48 hrs by sulforhodamine B assay relative to control; conditions: NCI-H522, 48 h, read-out: Activity
[24] = test system: HCT-116; assay: Growth inhibition of human HCT116 cells assessed as cell growth at 10^-5 M incubated for 48 hrs by sulforhodamine B assay relative to control; conditions: HCT-116, 48 h, read-out: Activity
[25] = test system: HCT-15; assay: Growth inhibition of human HCT15 cells assessed as cell growth at 10^-5 M incubated for 48 hrs by sulforhodamine B assay relative to control; conditions: HCT-15, 48 h, read-out: Activity
[26] = test system: HT-29; assay: Growth inhibition of human HT-29 cells assessed as cell growth at 10^-5 M incubated for 48 hrs by sulforhodamine B assay relative to control; conditions: HT-29, 48 h, read-out: Activity
[27] = test system: MOLT-4; assay: Growth inhibition of human MOLT4 cells assessed as cell growth at 10^-4 M incubated for 48 hrs by sulforhodamine B assay relative to control; conditions: MOLT-4, 48 h, read-out: Activity
[28] = test system: EKVX; assay: Growth inhibition of human EKVX cells assessed as cell growth at 10^-4 M incubated for 48 hrs by sulforhodamine B assay relative to control; conditions: read-out: Activity
[29] = test system: NCI-H322M; assay: Growth inhibition of human NCI-H322M cells assessed as cell growth at 10^-4 M incubated for 48 hrs by sulforhodamine B assay relative to control; conditions: read-out: Activity
[30] = test system: SW-620; assay: Growth inhibition of human SW620 cells assessed as cell growth at 10^-4 M incubated for 48 hrs by sulforhodamine B assay relative to control; conditions: SW-620, 48 h, read-out: Activity
[31] = test system: SK-MEL-2; assay: Growth inhibition of human SK-MEL-2 cells assessed as cell growth at 10^-4 M incubated for 48 hrs by sulforhodamine B assay relative to control; conditions: SK-MEL-2, 48 h, read-out: Activity
[32] = test system: UACC-257; assay: Growth inhibition of human UACC257 cells assessed as cell growth at 10^-4 M incubated for 48 hrs by sulforhodamine B assay relative to control; conditions: UACC-257, 48 h, read-out: Activity
[33] = test system: OVCAR-4; assay: Growth inhibition of human OVCAR4 cells assessed as cell growth at 10^-4 M incubated for 48 hrs by sulforhodamine B assay relative to control; conditions: OVCAR-4, 48 h, read-out: Activity
[34] = test system: OVCAR-8; assay: Growth inhibition of human OVCAR8 cells assessed as cell growth at 10^-4 M incubated for 48 hrs by sulforhodamine B assay relative to control; conditions: OVCAR-8, 48 h, read-out: Activity

How did the growth at 0.01 µM [1] turn out when CCCCOc1nc2ccccc2cc1C1CNC(=O)c2ccccc2N1 (centres undefined) was run?
The growth at 0.01 µM was 89%.

And the growth at 0.01 µM [2]?
Its growth at 0.01 µM is 99%.

And the growth at 0.01 µM [3]?
Its growth at 0.01 µM is 95%.

And the growth at 0.01 µM [4]?
The growth at 0.01 µM was 97%.

What about the growth at 0.01 µM [5] of the same compound?
Its growth at 0.01 µM is 92%.

And the growth at 0.01 µM [6]?
Its growth at 0.01 µM is 103%.

And the growth at 0.01 µM [7]?
The growth at 0.01 µM was 83%.

And the growth at 0.01 µM [8]?
The growth at 0.01 µM was 97%.

And the growth at 0.01 µM [9]?
The growth at 0.01 µM was 96%.

What about the growth at 0.1 µM [10] of the same compound?
Its growth at 0.1 µM is 79%.

What about the growth at 0.1 µM [11] of the same compound?
Its growth at 0.1 µM is 98%.

And the growth at 0.1 µM [12]?
Its growth at 0.1 µM is 95%.

What about the growth at 0.1 µM [13] of the same compound?
Its growth at 0.1 µM is 91%.

What about the growth at 0.1 µM [14] of the same compound?
Its growth at 0.1 µM is 96%.

What about the growth at 1 µM [15] of the same compound?
Its growth at 1 µM is 65%.

And the growth at 1 µM [16]?
Its growth at 1 µM is 95%.

And the growth at 1 µM [17]?
The growth at 1 µM was 85%.

What about the growth at 1 µM [18] of the same compound?
The growth at 1 µM was 42%.

And the growth at 1 µM [19]?
Its growth at 1 µM is 61%.

What about the growth at 1 µM [20] of the same compound?
Its growth at 1 µM is 62%.

And the growth at 10 µM [21]?
Its growth at 10 µM is 14%.

And the growth at 10 µM [22]?
Its growth at 10 µM is 21%.

What about the growth at 10 µM [23] of the same compound?
The growth at 10 µM was 25%.

What about the growth at 10 µM [24] of the same compound?
Its growth at 10 µM is -19%.

And the growth at 10 µM [25]?
Its growth at 10 µM is 3%.

And the growth at 10 µM [26]?
The growth at 10 µM was 3%.

And the growth at 100 µM [27]?
Its growth at 100 µM is -37%.

And the growth at 100 µM [28]?
The growth at 100 µM was -3%.

And the growth at 100 µM [29]?
Its growth at 100 µM is -16%.

And the growth at 100 µM [30]?
Its growth at 100 µM is -24%.

What about the growth at 100 µM [31] of the same compound?
The growth at 100 µM was -15%.

And the growth at 100 µM [32]?
The growth at 100 µM was 6%.

What about the growth at 100 µM [33] of the same compound?
Its growth at 100 µM is -37%.

What about the growth at 100 µM [34] of the same compound?
Its growth at 100 µM is -45%.
